One experiment concerns NF-κB. Kind of experiment: NF-κB activation in stimulated T cells (phosphorylation readout). The format is cell-based, human. The conditions noted are these: 24 h. As to the method: All treatments were for 24 h.
Freshly isolated T cells (2×10^5 cells/well) were harvested and stimulated as described before in a 96-well plate in the presence of DMSO or compounds of interest. Following the overnight treatment, the cells were pelleted in a U-bottom plate, harvested by centrifugation (600 g, 3 min, 4° C.), washed with PBS, and stained with near-IR LIVE/DEAD dye as described above. After the staining, intracellular phospho-NF-κB p65 (Ser536) levels were measured using PE conjugate of phospho-NF-κB p65 (Ser536) (93H1) rabbit antibody (Cell Signaling Technology) according to manufacturer's instructions. Briefly, the cells were washed with PBS and fixed with 4% PFA in PBS (100 μL, 15 min, rt). The cells were washed with PBS again (2×150 μL), placed on ice and permeabilized with 90% MeOH (100 μL/well, slow addition with gentle mixing by pipetting up and down). Following a 30 min incubation on ice, the plate was sealed and stored at −20° C. overnight. The following day, the cells were thawed on ice, washed with PBS (150 μL×2), and stained with PE conjugate of phospho-NF-κB p65 (Ser536) (93H1) rabbit antibody (50 μL, 1:100 dilution in incubation buffer (1% FBS in PBS)) for 1 h at rt in the dark. The cells were then washed with incubation buffer (150 μL×2) and resuspended in PBS for further flow cytometry analysis.

The test system of the next experiment is BIRC2 and BIRC3 mRNA. Nature of the experiment: mRNA content for BIRC2 and BIRC3 in T cells (qPCR). It is filed as cell-based, human. The conditions noted are these: EV-3 10 μM, 24 h. The procedure: All treatments were done with T cells for 24 hours.
Total RNA from compound or DMSO treated T cells (1.5×10^7 cells/group) was isolated using RNeasy Mini Kit (Qiagen) according to manufacturer's protocol. RNA concentration was determined using NanoDrop and adjusted to 1 μg RNA in 15 μL RNAse free water for the reverse transcription reaction. cDNA amplification was done using iScript Reverse Transcription Supermix kit (BioRad) according to manufacturer's instructions. The following PCR settings were used for the reverse transcription reaction: 5 min at 25° C. (priming), 20 min at 46° C. (Reverse transcription), 1 min at 95° C. (RT inactivation), hold at 4° C. qPCR analysis was performed on ABI Real Time PCR System (Applied Biosystems) with the SYBR green Mastermix (Applied Biosystems). Relative gene expression was normalized to actin.

The target of another experiment is T1, TMEM173 (Homo sapiens, UniProt Q86WV6).
T1 construct: endogenous in cells; host or cells: primary human T cells
T1 sequence (Q86WV6 whole entry H232R): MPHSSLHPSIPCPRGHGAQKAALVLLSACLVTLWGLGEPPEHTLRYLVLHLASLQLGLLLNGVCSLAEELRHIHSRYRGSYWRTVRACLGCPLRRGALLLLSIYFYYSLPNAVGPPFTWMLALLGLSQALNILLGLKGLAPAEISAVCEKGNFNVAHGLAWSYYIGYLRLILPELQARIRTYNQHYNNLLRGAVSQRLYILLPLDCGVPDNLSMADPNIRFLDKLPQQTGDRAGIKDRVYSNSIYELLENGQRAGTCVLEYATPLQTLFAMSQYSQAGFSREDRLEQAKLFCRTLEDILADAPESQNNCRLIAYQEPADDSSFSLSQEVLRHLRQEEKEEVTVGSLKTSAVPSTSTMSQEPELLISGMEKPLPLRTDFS
Nature of the experiment: TMEM173/STING pathway activation by cGAMP in PBMCs (qPCR, ELISA, Bio-Plex). It is filed as cell-based. As to conditions: BPK-25 10 μM. As to the method: FIG. 12A is a pie chart showing the fraction of protein targets of active compounds with available crystal structures containing the corresponding liganded cysteine residues. FIG. 12B is a computer-generated model of BPK-21 and BPK-25 interactions with C91 of stimulator of interferon genes protein (STING, or TMEM173). FIG. 12C is a graph of IRF response of THP1-Lucia™ ISG cells. THP-1 Lucia ISG cells were treated with DMSO or BPK-25 in the presence of viral dsDNA (2 μg/mL) for 24 h and the levels of IRF-induced Lucia luciferase were determined using QUANTI-Luc™. Cell viability was measured using CellTiter-Glo™ assay. Luminescence signals for test samples were normalized to DMSO-treated samples and reported as relative light units (RLU)±SEM; n=3/group. […] Relative expression of IL-6, IL-1β, and IP10 (CXCL10) genes was measured by qPCR and normalized to actin. […] GFP-positive cells were further analyzed for CD25 and CD69 expression levels by measuring mean fluorescence intensity of the PE- (PE-CD25) and APC-channels (APC-CD69). […]
Freshly isolated PBMCs (4×10^6 cells/mL, 1 mL/well), were treated with BPK-25 (10 μM) or vehicle (DMSO) for 6 h in a 24-well plate, after which cGAMP (10 μM) was added to the wells and the cells were incubated for additional 20 h. […] When run on the Bioplex 200 system, […] of supernatant was mixed with 50 μL of beads and quantified against human cytokines standard curves. […]

With `C=CC(=O)N(Cc1cccc(Cl)c1Cl)c1ccc(Oc2ccccc2)c(C(F)(F)F)c1` [BPK-21], the “reductions in phosphorylation (NF-κB activation)” value in the experiment on NF-κB is given as “did not appear to impact”.
For the compound `O=C(CCl)N1CCN(S(=O)(=O)c2ccc(-c3ccncc3)cc2)CC1` [EV-3], the “mRNA content for BIRC2 or BIRC3” value in the experiment on BIRC2 and BIRC3 mRNA was “minimal changes”.
As for `C=CC(=O)N(Cc1cccc(Cl)n1)c1ccc(C(=O)Nc2ccccc2)nc1` [BPK-25], the “TMEM173 activation by cGAMP in primary human PBMCs” value on TMEM173 was “inhibited TMEM173 activation”.

For the origin of these results see US20240131032A1, “AN ACTIVITY-GUIDED MAP OF ELECTROPHILE-CYSTEINE INTERACTIONS IN PRIMARY HUMAN IMMUNE CELLS” (The Scripps Research Institute, priority 2019, published 2024).
